Structures can show the parent of a compound that is named as a salt.
Assays:
[1] = biological target: AMPA receptors; assay: AMPA receptor binding affinity (Honore et al.)
[2] = biological target: kainate site (non-NMDA receptor); assay: Kainate site (non-NMDA receptor) binding affinity (London and Coyle)
[3] = biological target: T1, glycine site of the NMDA receptor (Rattus norvegicus, UniProt P35439); assay: Glycine site of the NMDA receptor binding affinity (Jones et al.)
T1 construct: from tissue

[4] = test system: AMPA-induced neuronal damage in primary cortical neuronal cultures; assay: AMPA-induced neuronal damage in primary cortical neuronal cultures, LDH release; assay type: cell-based; details: long-term exposure to 100 μM AMPA
Procedure: To functionally measure AMPA antagonist activity, the effects of the agent on AMPA-induced neuronal damage in primary cortical neuronal cultures was examined using techniques similar to those outlined by Koh, J.-Y. et al., J. Neurosci, 1990; 10:693. The neuronal damage produced by long-term exposure to 100 μM AMPA was measured by the release of the cytosolic enzyme lactate dehydrogenase (LDH).
Selected compounds of the present invention were tested by one or more of the above-described assays. The IC50 values set forth in Tables 1 and 2 are a measure of the concentration (μM) of the test substance which inhibits 50% of an induced release from the tested receptors.

[5] = Table 1, cyclohexyl-fused analogs
[6] = Table 2, cyclopentyl-fused analogs

Structure (SMILES) | IC50 [1, 5] | IC50 [2, 5] | IC50 [3, 5] | IC50 [4, 5] | IC50 [1, 6] | IC50 [2, 6] | IC50 [3, 6] | IC50 [4, 6]
NC1CCc2c([N+](=O)[O-])cc3[nH]c(=O)c(=O)[nH]c3c2C1 (stereo not drawn) [Example 15, 9-amino-6-nitro-1,4,7,8,9,10-hexahydro-benzo[f]quinoxaline-2,3-dione] | 0.7 µM | 2.8 µM | 1.8 µM | 20 µM | – | – | – | –
CC(=O)NC1CCc2c([N+](=O)[O-])cc3[nH]c(=O)c(=O)[nH]c3c2C1 (stereo not drawn) [Example 17, N-(6-nitro-2,3-dioxo-1,2,3,4,7,8,9,10-octahydro-benzo[f]quinoxalin-9-yl)-acetamide] | 0.56 µM | 2.2 µM | 0.62 µM | > 30 µM | – | – | – | –
O=C(NC1CCc2c([N+](=O)[O-])cc3[nH]c(=O)c(=O)[nH]c3c2C1)c1ccccc1 (stereo not drawn) [Example 36, N-(6-nitro-2,3-dioxo-1,2,3,4,7,8,9,10-octahydrobenzo[f]quinoxalin-9-yl)-benzamide] | 0.42 µM | 0.9 µM | 0.09 µM | 30 µM | – | – | – | –
O=C(NC1Cc2c([N+](=O)[O-])cc3[nH]c(=O)c(=O)[nH]c3c2C1)c1ccccc1 (stereo not drawn) [Example 39, N-(6-nitro-2,3-dioxo-4,7,8,9-tetrahydro-1H-cyclopenta[f]quinoxalin-8-yl)-benzamide] | – | – | – | – | 0.11 µM | 0.48 µM | 0.4 µM | 18 µM
O=C(NC1CCc2c([N+](=O)[O-])cc3[nH]c(=O)c(=O)[nH]c3c2C1)C1CCNCC1 (stereo not drawn) [Example 40, 4-(6-nitro-2,3-dioxo-1,2,3,4,7,8,9,10-octahydrobenzo[f]quinoxaline-9-ylcarbamoyl)-piperidine hydrochloride] | 0.27 µM | 0.82 µM | 0.28 µM | 25 µM | – | – | – | –
O=C(NC1Cc2c([N+](=O)[O-])cc3[nH]c(=O)c(=O)[nH]c3c2C1)c1ccoc1 (stereo not drawn) [Example 59, Furan-3-carboxylic acid (6-nitro-2,3-dioxo-2,3,4,7,8,9-hexahydro-1H-cyclopenta[f]quinoxalin-8-yl)-amide] | – | – | – | – | 0.14 µM | 0.38 µM | > 1 µM | 14 µM
O=C(NC1Cc2c([N+](=O)[O-])cc3[nH]c(=O)c(=O)[nH]c3c2C1)c1ccsc1 (stereo not drawn) [Example 60, Thiophene-3-carboxylic acid (6-nitro-2,3-dioxo-2,3,4,7,8,9-hexahydro-1H-cyclopenta[f]quinoxalin-8-yl)amide] | – | – | – | – | 0.1 µM | 0.36 µM | 0.4 µM | 14 µM
O=C(NC1Cc2c([N+](=O)[O-])cc3[nH]c(=O)c(=O)[nH]c3c2C1)c1cccnc1 (stereo not drawn) [Example 61, N-(6-Nitro-2,3-dioxo-2,3,4,7,8,9-hexahydro-1H-cyclopenta[f]quinoxalin-8-yl)-nicotinamide] | – | – | – | – | 0.2 µM | 1.03 µM | > 1 µM | 28 µM
O=C(NC1Cc2c([N+](=O)[O-])cc3[nH]c(=O)c(=O)[nH]c3c2C1)C1(O)OC(O)C(O)C1O (stereo not drawn) [Example 63, 2,3,4,5-Tetrahydroxy-tetrahydro-furan-2-carboxylic acid (6-nitro-2,3-dioxo-2,3,4,7,8,9-hexahydro-1H-cyclopenta[f]quinoxalin-8-yl)-amide] | – | – | – | – | 0.58 µM | 1.1 µM | > 1 µM | > 30 µM
